Source: patent publication EP0453247A2, “Anti-viral compounds” (THE WELLCOME FOUNDATION LIMITED, priority 1990, dated 1991)

Legend:
[1] = Cell growth inhibition assay (MTT uptake); type: cell-based; settings: monkey, Vero cells, 50% inhibition of cell viability at 96 hours, read-out: Toxicity CCID50(Vero)
Protocol: Cell toxicity is assessed in a cell growth inhibition assay. Subconfluent cultures of Vero cells grown on 96-well microtiter dishes are exposed to different dilutions of drug, and cell viability determined daily on replicate cultures using uptake of a tetrazolium dye (MTT). The concentration required for a 50% inhibition of cell vaibility at 96 hours is termed CCID₅₀.

VZV = VZV plaque reduction assay; type: cell-based; settings: Human alphaherpesvirus 3; plaque reduction in monolayers of MRC5 or Detroit 532 cells; read-out: VZV 1C50
Protocol: Antiviral testing against VZV was determined by measuring the ability of the compound to reverse the cytophathic effect of VZV infection.
VZV is assayed in monolayers of either MRC5 cells (human embryonic lung) or Detroit 532 cells (human foreskin fibroblasts) in multiwell trays. Activity of compounds is determined in the plaque reduction assay, in which a cell monolayer is infected with a suspension of VZV. Plaque numbers of each concentration are expressed as percentage of the control and a dose-response curve is drawn. From this curve the 50% inhibitory concentration (IC₅₀) is estimated.

Row | Compound | CC50 at 96 h [1] [µM] | IC50 (VZV) [µM]
1 | CC#Cc1cn([C@@H]2O[C@H](CO)[C@@H](O)[C@H]2F)c(=O)nc1N [2'-Deoxy-2'-fluoro-5-prop-1-ynylcytidine, 2′-Deoxy-2′-fluoro-5-prop-1-ynylcytidine] | > 500 | 2.3
2 | CC#Cc1cn([C@@H]2O[C@H](CO)[C@@H](O)[C@H]2F)c(=O)[nH]c1=O [2'-Deoxy-2'-fluoro-5-prop-1-ynyluridine, 2′-Deoxy-2′-fluoro-5-prop-1-ynyluridine] | > 500 | 2.6
3 | C#Cc1cn([C@@H]2O[C@H](CO)[C@@H](O)[C@H]2F)c(=O)nc1N [2'-Deoxy-5-ethynyl-2'-fluorocytidine, 2′-Deoxy-5-ethynyl-2′fluorocytidine] | > 500 | 5.3
4 | C#Cc1cn([C@@H]2O[C@H](CO)[C@@H](O)[C@H]2F)c(=O)[nH]c1=O [2'-Deoxy-5-ethynyl-2'-fluorouridine, 2′-Deoxy-5-ethynyl-2′-fluoro uridine] | 156 | 2.16
